Assay results: ChEMBL document CHEMBL1136316, “Low molecular mass peptide dendrimers that express antimicrobial properties” (2003)
Values after ≈ are worked out from the molar mass of the structure shown.

Assays:
Escherichia coli = experiment: Antimicrobial activity against Escherichia coli NCTC 8196; assay type: functional
Staphylococcus aureus = experiment: Antimicrobial activity against Staphylococcus aureus NCTC 4163; assay type: functional

Row | Compound | MIC (Escherichia coli) | MIC (Staphylococcus aureus)
1 | NCCCC[C@@H](NC(=O)OCc1ccccc1)C(=O)NCCCC[C@@H](NC(=O)[C@@H](CCCCN)NC(=O)OCc1ccccc1)C(=O)N[C@H](Cc1ccccc1)C(N)=O | 64 µM (≈ 52.3 µg/mL) | 39 µM (≈ 31.9 µg/mL)
2 | NCCCC[C@@H](NC(=O)OCc1ccccc1)C(=O)NCCCC[C@@H](NC(=O)[C@@H](CCCCN)NC(=O)OCc1ccccc1)C(=O)NCC(N)=O | 375 µM (≈ 273 µg/mL) | 94 µM (≈ 68.3 µg/mL)
3 | NCCCC[C@@H](NC(=O)OCc1ccccc1)C(=O)NCCC[C@@H](NC(=O)[C@@H](CCCCN)NC(=O)OCc1ccccc1)C(=O)N[C@H](Cc1ccccc1)C(N)=O | 85 µM (≈ 68.3 µg/mL) | 85 µM (≈ 68.3 µg/mL)
4 | NC(=O)[C@@H](Cc1ccc(O)cc1)NC(=O)[C@@H](CCCCNC(=O)[C@H](N)CCCCNC(=O)OCc1ccccc1)NC(=O)[C@H](N)CCCCNC(=O)OCc1ccccc1 | 331 µM (≈ 276 µg/mL) | 331 µM (≈ 276 µg/mL)
5 | N=C(N)NCCCC(NC(=O)OCc1ccccc1)C(=O)NCCCCC(NC(=O)C(CCCN=C(N)N)NC(=O)OCc1ccccc1)C(=O)NCCCCC(NC(=O)C(CCCCNC(=O)C(CCCN=C(N)N)NC(=O)OCc1ccccc1)NC(=O)C(CCCN=C(N)N)NC(=O)OCc1ccccc1)C(=O)N[C@H](Cc1ccccc1)C(N)=O (stereo in doubt) | 20 µM (≈ 34.2 µg/mL) | 44 µM (≈ 75.2 µg/mL)
6 | COC(=O)[C@H](Cc1ccccc1)NC(=O)[C@@H](N)CCCCN | 590 µM (≈ 181 µg/mL) | 300 µM (≈ 92.2 µg/mL)
7 | C[C@H](N)C(=O)NCCCC[C@H](NC(=O)[C@H](C)N)C(=O)NCCCC[C@H](NC(=O)[C@H](CCCCNC(=O)[C@H](C)N)NC(=O)[C@H](C)N)C(=O)N[C@@H](Cc1ccccc1)C(N)=O (stereo in doubt) | 181 µM (≈ 151 µg/mL) | 181 µM (≈ 151 µg/mL)
8 | NC(=O)[C@@H](Cc1ccccc1)NC(=O)[C@@H](CCCCNC(=O)[C@H](N)CCCCNC(=O)OCc1ccccc1Cl)NC(=O)[C@H](N)CCCCNC(=O)OCc1ccccc1Cl | 84 µM (≈ 74.4 µg/mL) | 16 µM (≈ 14.2 µg/mL)
9 | N=C(N)NCCCC(NC(=O)OCc1ccccc1)C(=O)NCCCC[C@@H](NC(=O)C(CCCN=C(N)N)NC(=O)OCc1ccccc1)C(=O)N[C@H](CCCCNC(=O)[C@@H](CCCCNC(=O)C(CCCN=C(N)N)NC(=O)OCc1ccccc1)NC(=O)C(CCCN=C(N)N)NC(=O)OCc1ccccc1)C(=O)N[C@H](Cc1ccccc1)C(N)=O (stereo in doubt) | 44 µM (≈ 75.2 µg/mL) | 88 µM (≈ 150 µg/mL)
10 | NCCCC[C@H](NC(=O)OCc1ccccc1)C(=O)N[C@@H](Cc1ccccc1)C(N)=O | 324 µM (≈ 138 µg/mL) | 151 µM (≈ 64.4 µg/mL)
11 | N=C(N)NCCC[C@@H](NC(=O)OCc1ccccc1)C(=O)NCCCC[C@H](NC(=O)[C@@H](CCCN=C(N)N)NC(=O)OCc1ccccc1)C(=O)N[C@H](CCCCNC(=O)C(CCCCNC(=O)[C@H](CCCN=C(N)N)NC(=O)OCc1ccccc1)NC(=O)[C@H](CCCN=C(N)N)NC(=O)OCc1ccccc1)C(=O)N[C@H](Cc1ccccc1)C(N)=O (stereo partly specified) | 20 µM (≈ 34.2 µg/mL) | 44 µM (≈ 75.2 µg/mL)
12 | NC(=O)[C@@H](Cc1ccccc1)NC(=O)[C@@H](CCCCNC(=O)[C@@H](CCCCNC(=O)[C@@H](N)CCCN=C(N)N)NC(=O)[C@@H](N)CCCN=C(N)N)NC(=O)[C@@H](CCCCNC(=O)C(N)CCCN=C(N)N)NC(=O)[C@H](N)CCCN=C(N)N (stereo partly specified) | 75 µM (≈ 88 µg/mL) | 130 µM (≈ 153 µg/mL)
13 | NCCCC[C@@H](NC(=O)OCc1ccccc1)C(=O)NCCCC[C@@H](NC(=O)[C@@H](CCCCN)NC(=O)OCc1ccccc1)C(=O)N[C@H](Cc1ccc(O)cc1)C(N)=O | 165 µM (≈ 137 µg/mL) | 1330 µM (≈ 1110 µg/mL)
